Data set [1] has as its system Liver microsome. As to the kind of experiment: Drug level in human liver microsomes treated with 10 to 25 uM vorapaxar after 120 mins by LC-MS/MS analysis in presence of omeprazole. The class given is ADME. The note with it: 2 h. In general terms: Liver microsomes are vesicles of endoplasmic reticulum, rich in cytochrome P450 enzymes.
In data set [2] the target is T1, Cytochrome P450 1A2 (Homo sapiens, UniProt P05177).
T1 sequence (P05177 whole entry): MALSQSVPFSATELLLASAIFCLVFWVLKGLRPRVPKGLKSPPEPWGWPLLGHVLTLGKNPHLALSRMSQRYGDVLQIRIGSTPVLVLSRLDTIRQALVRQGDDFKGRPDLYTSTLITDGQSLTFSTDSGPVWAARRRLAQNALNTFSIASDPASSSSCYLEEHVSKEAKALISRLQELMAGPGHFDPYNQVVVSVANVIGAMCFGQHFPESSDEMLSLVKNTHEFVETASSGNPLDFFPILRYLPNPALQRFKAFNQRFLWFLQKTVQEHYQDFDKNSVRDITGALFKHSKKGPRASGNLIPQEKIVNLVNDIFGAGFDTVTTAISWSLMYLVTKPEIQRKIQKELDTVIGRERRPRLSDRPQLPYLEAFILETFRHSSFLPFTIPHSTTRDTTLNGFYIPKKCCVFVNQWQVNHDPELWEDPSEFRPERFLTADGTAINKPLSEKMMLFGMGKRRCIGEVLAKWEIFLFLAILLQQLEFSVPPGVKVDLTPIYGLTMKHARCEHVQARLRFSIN
As to the kind of experiment: Activity of human recombinant CYP1A2 assessed as enzyme-mediated drug metabolism treated with 10 uM [14C]vorapaxar after 120 mins by LC-MS/MS analysis in presence of NADPH. The class given is ADME. The note with it: 2 h.

Data set [3] concerns the target T2, Cytochrome P450 2C19 (Homo sapiens, UniProt P33261). In words: Drug level assessed as human recombinant CYP2C19-mediated drug metabolism treated with 25 uM [14C]vorapaxar after 120 mins by LC-MS/MS analysis in presence of NADPH. The note with it: recombinant enzyme, 2 h. The class given is ADME.
For a further data set, the target named is Cytochrome P450 2C9 (Homo sapiens, UniProt P11712). As to the kind of experiment: Activity of human recombinant CYP2C9 assessed as enzyme-mediated drug metabolism treated with 10 uM [14C]vorapaxar after 120 mins by LC-MS/MS analysis in presence of NADPH. The class given is ADME. The note with it: 2 h.
In the next data set the target is T3, Cytochrome P450 2J2 (Homo sapiens, UniProt P51589).
T3 sequence (P51589 whole entry): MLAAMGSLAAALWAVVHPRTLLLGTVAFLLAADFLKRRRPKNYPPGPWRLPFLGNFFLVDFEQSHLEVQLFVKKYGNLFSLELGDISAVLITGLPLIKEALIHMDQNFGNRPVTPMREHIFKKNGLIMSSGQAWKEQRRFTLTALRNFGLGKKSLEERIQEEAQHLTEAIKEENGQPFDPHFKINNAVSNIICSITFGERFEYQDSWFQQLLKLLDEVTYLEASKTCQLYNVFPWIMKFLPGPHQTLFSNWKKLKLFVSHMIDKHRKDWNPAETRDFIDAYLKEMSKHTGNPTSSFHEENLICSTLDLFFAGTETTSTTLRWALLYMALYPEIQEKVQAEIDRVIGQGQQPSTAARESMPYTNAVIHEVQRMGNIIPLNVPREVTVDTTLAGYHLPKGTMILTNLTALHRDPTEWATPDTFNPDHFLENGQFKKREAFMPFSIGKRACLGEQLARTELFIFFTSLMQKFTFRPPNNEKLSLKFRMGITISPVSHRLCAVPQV
In words: Drug level in human liver microsomes assessed as CYP2J2-mediated drug metabolism at 25 uM after 120 mins by LC-MS/MS analysis. The note with it: 2 h. The class given is ADME.

For data set [4], the target named is T4, Cytochrome P450 1A1 (Homo sapiens, UniProt P04798).
T4 sequence (P04798 whole entry): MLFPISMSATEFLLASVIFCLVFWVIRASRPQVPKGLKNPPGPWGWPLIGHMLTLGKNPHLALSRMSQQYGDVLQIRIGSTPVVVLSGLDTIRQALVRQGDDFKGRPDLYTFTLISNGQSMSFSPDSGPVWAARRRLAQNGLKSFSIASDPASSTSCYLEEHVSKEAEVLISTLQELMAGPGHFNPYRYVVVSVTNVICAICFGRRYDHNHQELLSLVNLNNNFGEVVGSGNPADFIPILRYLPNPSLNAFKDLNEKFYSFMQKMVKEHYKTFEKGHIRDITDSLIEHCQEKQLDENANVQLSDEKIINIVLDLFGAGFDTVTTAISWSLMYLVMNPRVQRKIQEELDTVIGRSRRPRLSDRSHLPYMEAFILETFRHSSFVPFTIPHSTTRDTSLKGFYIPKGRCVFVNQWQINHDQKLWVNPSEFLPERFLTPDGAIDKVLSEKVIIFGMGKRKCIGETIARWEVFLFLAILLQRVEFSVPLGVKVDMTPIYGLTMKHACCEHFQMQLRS
In words: Activity of human recombinant CYP1A1 assessed as enzyme-mediated drug metabolism treated with 10 uM [14C]vorapaxar after 120 mins by LC-MS/MS analysis in presence of NADPH. The class given is ADME. The note with it: 2 h.

In data set [5] the test system is Liver microsome. As to the kind of experiment: Drug metabolism in human liver microsomes treated with 10 uM [14C]vorapaxar after 120 mins by LC-MS/MS analysis. The note with it: 2 h. The class given is ADME.
Data set [6] concerns Liver microsome. In words: Drug level in human liver microsomes treated with 10 to 25 uM vorapaxar after 120 mins by LC-MS/MS analysis in presence of quinidine. The class given is ADME. The note with it: 2 h.
A further data set addresses T5, Cytochrome P450 4F3 (Homo sapiens, UniProt Q08477).
T5 sequence (Q08477 whole entry): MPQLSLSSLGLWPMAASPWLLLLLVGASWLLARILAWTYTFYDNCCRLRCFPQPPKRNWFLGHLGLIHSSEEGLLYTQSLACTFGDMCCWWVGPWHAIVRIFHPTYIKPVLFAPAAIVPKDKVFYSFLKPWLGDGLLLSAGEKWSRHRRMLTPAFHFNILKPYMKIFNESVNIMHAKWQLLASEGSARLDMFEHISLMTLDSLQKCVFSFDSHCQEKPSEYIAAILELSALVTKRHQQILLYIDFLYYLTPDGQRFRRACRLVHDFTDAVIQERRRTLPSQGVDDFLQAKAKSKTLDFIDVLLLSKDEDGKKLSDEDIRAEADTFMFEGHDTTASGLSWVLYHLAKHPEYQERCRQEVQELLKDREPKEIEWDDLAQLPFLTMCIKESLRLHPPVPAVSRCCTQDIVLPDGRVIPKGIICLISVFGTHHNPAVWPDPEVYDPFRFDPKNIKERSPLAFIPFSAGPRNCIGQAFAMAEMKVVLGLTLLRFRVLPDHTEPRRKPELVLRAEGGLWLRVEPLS
As to the kind of experiment: Drug level assessed as human recombinant CYP4F3A-mediated drug metabolism treated with 25 uM [14C]vorapaxar after 120 mins by LC-MS/MS analysis in presence of NADPH. The class given is ADME. The note with it: recombinant enzyme, 2 h.

For data set [7], the target named is T6, Cytochrome P450 3A4 (Homo sapiens, UniProt P08684). As to the kind of experiment: Activity of human recombinant CYP3A4 assessed as enzyme-mediated drug metabolism treated with 10 uM [14C]vorapaxar after 120 mins by LC-MS/MS analysis in presence of NADPH. The class given is ADME. The note with it: 2 h.
The target in data set [8] is T6, Cytochrome P450 3A4. As to the kind of experiment: Drug level in human liver microsomes assessed as CYP3A4-mediated drug metabolism at 25 uM after 120 mins by LC-MS/MS analysis. The note with it: 2 h. The class given is ADME.
Data set [9] relates to Liver microsome. As to the kind of experiment: Drug level in human liver microsomes treated with 10 to 25 uM vorapaxar after 120 mins by LC-MS/MS analysis in presence of alpha-napthoflavone. The class given is ADME. The note with it: 2 h.
Data set [10] deals with T7, Cytochrome P450 3A5 (Homo sapiens, UniProt P20815). In words: Drug level assessed as human recombinant CYP3A5-mediated drug metabolism treated with 25 uM [14C]vorapaxar after 120 mins by LC-MS/MS analysis in presence of NADPH. The class given is ADME. The note with it: recombinant enzyme, 2 h.
Data set [11] concerns the target T7, Cytochrome P450 3A5. As to the kind of experiment: Activity of human recombinant CYP3A5 assessed as enzyme-mediated drug metabolism treated with 10 uM [14C]vorapaxar after 120 mins by LC-MS/MS analysis in presence of NADPH. The class given is ADME. The note with it: 2 h.
Data set [12] in a line: Drug metabolism in human liver S9 fraction treated with 10 uM [14C]vorapaxar after 120 mins by LC-MS/MS analysis. The class given is ADME, subcellular. The note with it: s9, 2 h.
In data set [13] the test system is Liver microsome. As to the kind of experiment: Drug level in human liver microsomes treated with 10 to 25 uM vorapaxar after 120 mins by LC-MS/MS analysis in presence of CYP3A4-specific inhibitory antibody. The class given is ADME. The note with it: 2 h.
Data set [14] has as its target T4, Cytochrome P450 1A1. As to the kind of experiment: Drug level assessed as human recombinant CYP1A1-mediated drug metabolism treated with 25 uM [14C]vorapaxar after 120 mins by LC-MS/MS analysis in presence of NADPH. The note with it: recombinant enzyme, 2 h. The class given is ADME.
In data set [15] the target is T2, Cytochrome P450 2C19. As to the kind of experiment: Activity of human recombinant CYP2C19 assessed as enzyme-mediated drug metabolism treated with 10 uM [14C]vorapaxar after 120 mins by LC-MS/MS analysis in presence of NADPH. The class given is ADME. The note with it: 2 h.
The target of data set [16] is T1, Cytochrome P450 1A2. As to the kind of experiment: Drug level assessed as human recombinant CYP1A2-mediated drug metabolism treated with 25 uM [14C]vorapaxar after 120 mins by LC-MS/MS analysis in presence of NADPH. The note with it: recombinant enzyme, 2 h. The class given is ADME.
In data set [17] the test system is Liver microsome. As to the kind of experiment: Drug level in human liver microsomes treated with 10 to 25 uM vorapaxar after 120 mins by LC-MS/MS analysis in presence of sulfaphenazole. The class given is ADME. The note with it: 2 h.

T6 sequence (P08684 whole entry): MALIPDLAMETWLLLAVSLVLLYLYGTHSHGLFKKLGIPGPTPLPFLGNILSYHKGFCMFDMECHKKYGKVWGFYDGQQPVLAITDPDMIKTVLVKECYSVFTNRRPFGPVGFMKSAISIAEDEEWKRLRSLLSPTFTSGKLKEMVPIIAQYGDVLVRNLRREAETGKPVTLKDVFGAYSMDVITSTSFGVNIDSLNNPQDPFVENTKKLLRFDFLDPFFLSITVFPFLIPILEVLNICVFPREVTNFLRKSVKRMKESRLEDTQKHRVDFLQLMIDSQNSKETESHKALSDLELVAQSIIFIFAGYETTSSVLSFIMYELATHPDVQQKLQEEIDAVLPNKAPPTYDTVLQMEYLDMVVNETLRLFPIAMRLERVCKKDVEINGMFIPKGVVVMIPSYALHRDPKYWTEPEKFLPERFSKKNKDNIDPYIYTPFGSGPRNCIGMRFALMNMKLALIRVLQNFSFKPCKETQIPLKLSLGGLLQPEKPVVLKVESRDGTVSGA
T2 sequence (P33261 whole entry): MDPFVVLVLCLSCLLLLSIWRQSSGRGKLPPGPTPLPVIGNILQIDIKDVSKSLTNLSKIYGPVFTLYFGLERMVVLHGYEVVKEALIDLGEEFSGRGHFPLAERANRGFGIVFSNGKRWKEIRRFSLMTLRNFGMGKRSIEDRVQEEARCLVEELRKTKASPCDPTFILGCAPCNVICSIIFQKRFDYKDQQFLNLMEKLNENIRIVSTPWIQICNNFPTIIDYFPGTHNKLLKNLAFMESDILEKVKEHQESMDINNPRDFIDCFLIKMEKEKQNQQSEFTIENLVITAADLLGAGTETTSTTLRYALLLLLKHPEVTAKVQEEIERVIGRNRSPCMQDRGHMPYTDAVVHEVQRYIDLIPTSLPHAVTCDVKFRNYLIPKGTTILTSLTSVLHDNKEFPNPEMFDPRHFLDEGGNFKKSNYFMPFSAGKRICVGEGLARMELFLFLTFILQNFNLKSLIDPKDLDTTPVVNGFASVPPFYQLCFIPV
T7 sequence (P20815 whole entry): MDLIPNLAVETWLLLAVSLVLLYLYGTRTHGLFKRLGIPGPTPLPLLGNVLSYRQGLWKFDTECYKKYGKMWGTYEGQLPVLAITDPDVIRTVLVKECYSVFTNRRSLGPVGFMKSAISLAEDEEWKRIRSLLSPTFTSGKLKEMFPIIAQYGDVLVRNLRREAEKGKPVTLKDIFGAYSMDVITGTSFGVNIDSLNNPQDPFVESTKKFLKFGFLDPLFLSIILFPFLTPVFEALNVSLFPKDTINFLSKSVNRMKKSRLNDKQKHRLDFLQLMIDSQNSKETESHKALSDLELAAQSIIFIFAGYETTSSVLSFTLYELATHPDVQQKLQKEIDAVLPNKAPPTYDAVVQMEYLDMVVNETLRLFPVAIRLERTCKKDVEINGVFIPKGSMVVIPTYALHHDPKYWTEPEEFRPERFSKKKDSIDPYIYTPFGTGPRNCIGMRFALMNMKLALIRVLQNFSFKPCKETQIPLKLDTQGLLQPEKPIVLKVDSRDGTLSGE
Cytochrome P450 2C9, sequence (P11712 whole entry): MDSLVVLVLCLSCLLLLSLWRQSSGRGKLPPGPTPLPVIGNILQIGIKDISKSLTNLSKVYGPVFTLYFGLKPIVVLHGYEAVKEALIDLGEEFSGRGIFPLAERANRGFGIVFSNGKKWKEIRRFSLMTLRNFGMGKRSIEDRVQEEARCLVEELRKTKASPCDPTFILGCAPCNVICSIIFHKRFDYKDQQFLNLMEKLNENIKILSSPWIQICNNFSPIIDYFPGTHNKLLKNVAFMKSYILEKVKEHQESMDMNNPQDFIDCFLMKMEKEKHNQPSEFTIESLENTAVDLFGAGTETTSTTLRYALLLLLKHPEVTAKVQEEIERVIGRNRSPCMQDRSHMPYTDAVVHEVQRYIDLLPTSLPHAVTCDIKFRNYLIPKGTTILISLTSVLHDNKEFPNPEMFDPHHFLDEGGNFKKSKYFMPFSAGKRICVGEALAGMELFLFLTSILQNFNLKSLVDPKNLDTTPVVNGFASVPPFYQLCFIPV

In the case of `C[C@H]1OC(=O)[C@@H]2C[C@@H]3C[C@H](N)CC[C@H]3[C@H](/C=C/c3ccc(-c4cccc(F)c4)cn3)[C@H]12`, the Drug metabolism result in the data set with Liver microsome [1], on Cytochrome P450 2C19 [3], at Cytochrome P450 2J2, with Liver microsome [6], on Cytochrome P450 4F3 and on Cytochrome P450 3A4 [8] was “metabolite_detected” in each case. The Drug metabolism entry with Liver microsome [9], at Cytochrome P450 3A5 [10], in the data set with Liver microsome [13], on Cytochrome P450 1A1 [14], on Cytochrome P450 1A2 [16] and in the data set with Liver microsome [17] was “metabolite_detected” throughout. Also, the Compound recovery on Cytochrome P450 1A2 [2] is 0.23%; on Cytochrome P450 2C9, “below level of quantification”; on Cytochrome P450 1A1 [4] it was 1.96%; with Liver microsome [5], 5.12%; at Cytochrome P450 3A4 [7], 22.1%; at Cytochrome P450 3A5 [11], 0.15%. The figures for the Compound recovery (in [12]; on Cytochrome P450 2C19 [15]) were 3.42% and 5.91%, respectively.
